Laboratory results: publication PMC8146789, “20-Hydroxyecdysone, from Plant Extracts to Clinical Use: Therapeutic Potential for the Treatment of Neuromuscular, Cardio-Metabolic and Respiratory Diseases” (Biomedicines, 2021)
Like-named read-outs stand apart in the source and are kept apart here.

Key:
ERα = tested on: ERα; parameters: method as in PMID 18220764; details: cited from earlier work
C2C12 cells = tested on: C2C12 cells; parameters: method as in ref [103] = [103]; 103. Dilda P. Foucault A.S. Serova M. On S. Raynal S. Veillet S. Dioh W. Lafont R. BIO101, a drug candidate targeting Mas receptor for the treatment of age-reated muscle degeneration. From molecular t; details: C2C12 myotubes, ref [103], cited from earlier work
C2C12 myotubes = tested on: C2C12 myotubes; parameters: method as in PMID 24974955; details: 20E 1 μM; ref [54]; cited from earlier work
mice = details: ref Ogawa et al. [121], cited from earlier work
[1] = cited from earlier work
Lambliasis = tested on: Lambliasis; parameters: method as in PMID 20614521; details: 5 mg 4×/day, 10 days; ref [168]; cited from earlier work
Erβ [2] = tested on: Erβ; parameters: method as in PMID 24974955; details: ref [54]; cited from earlier work
[3] = alcohols; cited from earlier work
[4] = parameters: method as in ref [174] = [174]; 174. Thole S.W. The Metabolic Syndrome: The Effects of β-ecdysone on Selected Body Parameters and Serum Lipids on the Metabolic Syndrome Ph.D. Thesis University of Göttingen Göttingen, Germany 2018; details: ref [174], cited from earlier work
bullfrogs = details: up to 600 mg/kg in the lymph sinus, ref [121]; cited from earlier work
[5] = tested on: epididymal adipose tissue; parameters: method as in PMID 21869758; details: mice, high-fat diet, 20E 50 mg/kg/day; ref [59]; cited from earlier work
[6] = parameters: method as in PMID 33819630; details: male Wistar rats, oral [3H]20E; ref [127]; cited from earlier work
Erβ [7] = tested on: Erβ; parameters: method as in PMID 18220764; details: cited from earlier work
[8] = genotoxicity (preclinical regulatory studies); details: Biophytis, unpublished data
Description: More recently, a purified to pharmaceutical grade 20E (≥97% 20E purity) was used as a drug candidate in preclinical regulatory studies including safety pharmacology, genotoxicity and repeated toxicology in rodents (rats) and non-rodents (dog).

rats [9] = details: long-term feeding 0.2–2 g/kg/day, ref [121]; cited from earlier work
[10] = parameters: method as in PMID 4650153; details: mice, oral; ref [122]; cited from earlier work
[11] = cited from earlier work; for dose dependence of plasma levels: increasing doses; for AUC0-t / Cmax / tmax: fasted; for AUC0-t / Cmax: n = 6, (SEM); for tmax: n = 6, (range)
rats [12] = tested on: rats; parameters: method as in ref [121] = [121]; 121. Ogawa S. Nishimoto N. Matsuda H. Pharmacology of ecdysones un vertebrates Invertebrate Endocrinology and Hormonal Heterophylly Burdette W.J. Springer Berlin, Germany 1974 341 344; details: ref [121]; cited from earlier work
[13] = oral; ref [127],[128]; cited from earlier work
ovariectomized rats = tested on: ovariectomized rats; parameters: method as in Seidlova-Wuttke et al. [57],[94]; details: up to 500 mg/kg daily for 3 months, ref Seidlova-Wuttke et al. [57],[94]; cited from earlier work
[14] = parameters: method as in doi:10.1055/s-0032-1320272; details: overweight, 2 × 50 mg/day; ref [170]; cited from earlier work
[15] = parameters: method as in doi:10.1016/0924-977X(96)83007-0; details: 7.5–10 mg/day, 1 month; ref [165]; cited from earlier work
[16] = parameters: method as in doi:10.1055/s-0032-1320426; details: ref [171],[172], cited from earlier work
[17] = humans, ingestion of 434 mg, ref [134]
[18] = humans, single oral intake of 20 mg, RIA and LC-MS
[19] = patients with metabolic syndrome
[20] = single oral 100 mg, ref [136],[137]
[21] = single oral 350 mg, ref [136],[137]
[22] = single oral 700 mg, ref [136],[137]
[23] = single oral 1400 mg, ref [136],[137]
[24] = slightly overweight persons, 200 mg daily

Structure (SMILES): CC(C)(O)CC[C@@H](O)[C@](C)(O)[C@H]1CC[C@@]2(O)C3=CC(=O)[C@@H]4C[C@@H](O)[C@@H](O)C[C@]4(C)[C@H]3CC[C@]12C [20E, 2β,3β,14α,20R,22R,25-hexahydroxy-5β-cholest-7-en-6-one]
- binding to nuclear receptor (ERα): negative
- optimal concentration for anabolic effect on protein synthesis (C2C12 cells; 0.01–10 μM tested): 1 µM
- protein synthesis stimulatory activity (C2C12 cells; 20E 0.01–10 μM, IGF-1 100 ng/mL): equally active as insulin-like growth factor-1 (IGF-1)
- myotube diameter (C2C12 myotubes): enhanced myotube diameter
- LD50 (mice; i.p.-injected): 6400 mg/kg
- LD50 (mice; ingested): > 9000 mg/kg
- total urinary excretion of 20E [1, 17]: 5 mg
- urinary excretion, of the ingested amount [1, 17]: approximately 1%
- urinary peak level ([1]; humans, ingestion of ca. 15 mg, ref Simon and Koolman [132]): approximately 0.5 μM
- time of urinary peak of detectable ecdysteroids [1, 18]: 3 to 4 h
- total quantity of detectable ecdysteroids in urine [1, 18]: 1 to 2 mg
- effective half-time of elimination from the blood ([1]; in vivo): 9 h
- effective half-time of elimination from the urine ([1]; in vivo): 3.3 h
- time of plasma titre maximum ([1]; in vivo): ca. 30 min
- parasite elimination (Lambliasis): Therapy eliminated most parasites within 10 days
- activation of ERE reporter gene (Erβ [2]): could be activated dose dependently
- solubility [3]: highly soluble in alcohols
- output of metabolic syndrome study ([4]; 40 or 90 mg/day, 3–6–9 months): Reductions in body mass, proportion of body fat, waist cicumference and hsCRP, retention of muscle mass
- body parameters versus control group [4, 19]: continuous and significant loss of body mass, fat percentage, and waist diameter
- effect on serum lipids [4, 19]: no significant effect on serum lipids
- hsCRP level [4, 19]: marked reduction
- effects after administration (bullfrogs): no effects were seen
- adipocyte diameter [5]: retains the median adipocyte diameter close to that in mice fed a low-fat diet
- mass of epididymal fat pads [5]: counteracts both the increase in the mass of the fat pads
- radioactivity in urine, of the total radioactivity recovered [6]: 1.40%
- time to completed elimination of 20E and its metabolites [6]: ≤ 48 h
- binding to nuclear receptor (Erβ [7]): negative
- genotoxic effects [8]: no genotoxic effects
- subacute toxicity (rats [9]): no subacute toxicity was observed
- bioavailability [10]: low
- radioactivity crossing the intestinal tract, of that administered [10]: < 2%
- route of elimination [10]: essentially fecal
- safety profile, adverse events ([11]; humans, SAD 100 to 1400 mg, MAD up to 450 mg twice a day for 14 days, ref [180]): no serious adverse events during SAD and MAD
- dose dependence of plasma levels ([11]; humans, oral, ref [136],[137]): dose-related and also apparently saturable
- dose dependence of plasma levels ([11]; humans, oral, ref [136],[137], listed as BIO101): increased less that dose-proportionally
- bioavailability ([11]; humans, oral, ref [180]): rather low
- share of the urinary excretion within 4 h ([11]; humans, single dose, ref [136],[137]): half of this was excreted within 4 h
- administered 20E excreted in the urine ([11]; humans, within 12 h of a single dose, ref [136],[137]): About 2%
- serum biomarkers of muscular catabolism (myoglobin, CK-MB) ([11]; older adults, after 14 days of administration (MAD), ref [180]): reduced in subjects administered the highest dose
- AUC0-t [11, 20]: 767 (31.1) ng·h/mL
- Cmax [11, 20]: 141 (16.6) ng/mL
- tmax [11, 20]: 2.03 (1.00–3.02) h
- AUC0-t [11, 21]: 1924 (40.1) ng·h/mL
- Cmax [11, 21]: 317 (37.9) ng/mL
- AUC0-t [11, 22]: 2578 (22.9) ng·h/mL
- Cmax [11, 22]: 399 (24.7) ng/mL
- tmax [11, 22]: 3.00 (2.00–4.02) h
- AUC0-t [11, 23]: 4148 (15.9) ng·h/mL
- Cmax [11, 23]: 710 (20.2) ng/mL
- tmax [11, 23]: 3.50 (2.00–4.02) h
- sex hormonal activity, anti-inflammatory or anabolic effects (rats [12]): did not have
- bioavailability [13]: ca. 1%
- detrimental effects (ovariectomized rats): no stated detrimental effects
- change in C-reactive protein [14]: −38%
- change in body fat [14]: −7.6%
- change in body weight [14]: −1.3%
- change in total cholesterol [14]: −17%
- change in triglycerides [14]: −37%
- change in waist circumference [14]: −3.2%
- muscle increase [14]: +2.9%
- patients with improvement of libido and sexual activity [15]: Improvement of libido and sexual activity in 75% of patients
- output of trial in menopause disorders ([16]; overweight, 100 or 200 mg/day, 3 months): Prevention of metabolic syndrome and osteoporosis, reduction in body weight, reduction in plasma cholesterol and CRP; proposed for hormone replacement therapy
- increase of HDL [16, 24]: 10.8%
- reduction of LDL [16, 24]: 13.9%
- reduction of serum cholesterol [16, 24]: 10.2%
- reduction of triglycerides [16, 24]: 31.1%
- reduction of waist circumference [16, 24]: 2.7 cm
